Laboratory results reported in patent EP4745135A1 (Gluetacs Therapeutics (Shanghai) Co., Ltd., priority 2023, dated 2025).

Key:
CK1α = molecular target: T1, CK1α (Homo sapiens, UniProt P48729+Q96SW2); assay: Western blot, degradation of substrate protein in hPBMCs; format: cell-based
T1 construct: effects of the compounds of the present disclosure on the expression of target proteins in cells; endogenous in cells; host or cells: human PBMCs (Milecell Biotechnologies)

IKZF1 = molecular target: T2, IKZF1 (Homo sapiens, UniProt Q13422+Q96SW2); assay: as above; format: cell-based
T2 construct: effects of the compounds of the present disclosure on the expression of target proteins in cells; endogenous in cells; host or cells: human PBMCs (Milecell Biotechnologies)

IKZF2 = molecular target: T3, IKZF2 (Homo sapiens, UniProt Q96SW2+Q9UKS7); assay: as above; format: cell-based
T3 construct: effects of the compounds of the present disclosure on the expression of target proteins in cells; endogenous in cells; host or cells: human PBMCs (Milecell Biotechnologies)

IKZF3 = molecular target: T4, IKZF3 (Homo sapiens, UniProt Q96SW2+Q9UKT9); assay: as above; format: cell-based
T4 construct: effects of the compounds of the present disclosure on the expression of target proteins in cells; endogenous in cells; host or cells: human PBMCs (Milecell Biotechnologies)

WEE1 = molecular target: T5, WEE1 (Homo sapiens, UniProt P30291+Q96SW2); assay: as above; format: cell-based
T5 construct: effects of the compounds of the present disclosure on the expression of target proteins in cells; endogenous in cells; host or cells: human PBMCs (Milecell Biotechnologies)

GSPT1 = assay: as above; format: cell-based, Human
[1] = molecular target: T6, human Cereblon WT GST-tagged protein (Homo sapiens, UniProt Q96SW2); assay: CRBN-binding affinity, HTRF (CEREBLON BINDING kit); conditions: for inhibition at 0.5 µM: read-out: Inhibition Rate at 0.5 µM (%); for inhibition at 2 µM: read-out: Inhibition Rate at 2 µM (%)
T6 construct: purchased CISBIO 64BDCRBNPEH

[2] = Western blot, 24 hours of compound treatment, compounds tested at 50 nM and 500 nM (concentration for the table not stated)
[3] = 24 hours treatment, compounds at 50 nM and 500 nM (concentration behind the class not stated)

T5 sequence (P30291 whole entry): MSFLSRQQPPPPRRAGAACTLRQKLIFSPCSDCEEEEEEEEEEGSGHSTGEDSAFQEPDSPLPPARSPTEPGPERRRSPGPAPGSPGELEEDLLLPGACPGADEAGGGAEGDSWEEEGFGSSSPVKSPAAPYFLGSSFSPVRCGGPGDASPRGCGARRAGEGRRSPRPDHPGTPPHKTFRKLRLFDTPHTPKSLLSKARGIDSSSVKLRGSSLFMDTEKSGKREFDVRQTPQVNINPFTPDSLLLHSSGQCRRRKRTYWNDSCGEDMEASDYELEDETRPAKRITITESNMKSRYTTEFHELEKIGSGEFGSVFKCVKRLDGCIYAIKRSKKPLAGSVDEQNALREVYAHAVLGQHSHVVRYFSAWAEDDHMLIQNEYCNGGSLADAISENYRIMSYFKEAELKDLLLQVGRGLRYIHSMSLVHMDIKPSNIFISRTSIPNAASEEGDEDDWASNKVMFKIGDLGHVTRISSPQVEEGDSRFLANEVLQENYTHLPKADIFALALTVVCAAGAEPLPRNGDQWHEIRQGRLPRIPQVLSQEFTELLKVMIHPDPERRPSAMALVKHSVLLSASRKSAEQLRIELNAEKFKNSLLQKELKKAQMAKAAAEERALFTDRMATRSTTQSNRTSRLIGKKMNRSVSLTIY
T5 sequence (Q96SW2 whole entry): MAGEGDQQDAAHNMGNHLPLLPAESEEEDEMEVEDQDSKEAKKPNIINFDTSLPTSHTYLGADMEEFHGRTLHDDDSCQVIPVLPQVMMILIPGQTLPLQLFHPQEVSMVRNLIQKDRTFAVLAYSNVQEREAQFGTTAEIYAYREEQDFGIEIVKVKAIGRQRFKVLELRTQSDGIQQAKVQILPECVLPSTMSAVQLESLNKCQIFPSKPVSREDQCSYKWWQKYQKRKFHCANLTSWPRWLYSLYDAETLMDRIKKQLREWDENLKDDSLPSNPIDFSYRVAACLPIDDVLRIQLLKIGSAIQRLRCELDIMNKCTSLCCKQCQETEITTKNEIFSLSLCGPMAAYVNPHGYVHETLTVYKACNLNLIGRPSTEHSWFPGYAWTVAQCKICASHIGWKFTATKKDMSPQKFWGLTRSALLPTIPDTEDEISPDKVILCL
T5 sequence (Q16531 whole entry partner): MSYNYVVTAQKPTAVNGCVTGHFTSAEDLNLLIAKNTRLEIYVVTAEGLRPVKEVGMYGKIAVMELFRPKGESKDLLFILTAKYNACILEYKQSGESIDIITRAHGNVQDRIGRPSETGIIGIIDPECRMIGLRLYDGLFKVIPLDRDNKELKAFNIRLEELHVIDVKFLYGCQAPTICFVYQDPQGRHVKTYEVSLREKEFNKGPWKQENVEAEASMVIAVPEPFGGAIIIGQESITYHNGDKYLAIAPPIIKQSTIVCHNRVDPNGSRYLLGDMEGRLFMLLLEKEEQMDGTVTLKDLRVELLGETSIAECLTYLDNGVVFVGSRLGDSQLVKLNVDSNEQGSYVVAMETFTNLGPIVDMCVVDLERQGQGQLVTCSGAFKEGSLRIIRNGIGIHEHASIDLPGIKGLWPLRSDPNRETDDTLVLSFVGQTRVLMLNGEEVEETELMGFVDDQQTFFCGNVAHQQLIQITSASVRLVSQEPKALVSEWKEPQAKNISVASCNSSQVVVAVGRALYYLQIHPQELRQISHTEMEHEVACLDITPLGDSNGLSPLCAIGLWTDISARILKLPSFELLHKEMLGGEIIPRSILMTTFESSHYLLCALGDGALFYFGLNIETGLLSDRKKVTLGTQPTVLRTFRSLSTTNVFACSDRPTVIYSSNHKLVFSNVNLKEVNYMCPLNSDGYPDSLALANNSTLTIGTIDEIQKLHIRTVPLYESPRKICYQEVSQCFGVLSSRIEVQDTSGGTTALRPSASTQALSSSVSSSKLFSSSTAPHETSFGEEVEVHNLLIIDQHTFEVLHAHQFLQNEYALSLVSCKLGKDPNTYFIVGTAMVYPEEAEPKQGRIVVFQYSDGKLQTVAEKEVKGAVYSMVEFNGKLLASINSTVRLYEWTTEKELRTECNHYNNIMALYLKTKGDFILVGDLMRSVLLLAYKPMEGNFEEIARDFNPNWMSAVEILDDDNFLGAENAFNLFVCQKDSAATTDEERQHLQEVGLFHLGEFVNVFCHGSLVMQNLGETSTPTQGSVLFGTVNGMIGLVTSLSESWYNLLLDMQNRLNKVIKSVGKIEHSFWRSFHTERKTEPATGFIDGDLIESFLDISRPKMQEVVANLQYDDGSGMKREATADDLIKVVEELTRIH
T1 sequence (P48729 whole entry): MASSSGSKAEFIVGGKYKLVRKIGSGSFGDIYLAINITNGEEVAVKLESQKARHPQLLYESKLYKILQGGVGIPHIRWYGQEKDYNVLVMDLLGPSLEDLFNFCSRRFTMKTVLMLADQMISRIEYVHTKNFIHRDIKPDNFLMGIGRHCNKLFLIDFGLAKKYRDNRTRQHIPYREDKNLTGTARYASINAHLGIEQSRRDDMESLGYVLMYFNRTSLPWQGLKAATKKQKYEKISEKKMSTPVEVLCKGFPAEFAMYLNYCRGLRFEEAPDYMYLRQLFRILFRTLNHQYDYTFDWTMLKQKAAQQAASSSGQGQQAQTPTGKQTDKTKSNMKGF
T1 sequence (Q96SW2 whole entry): as the sequence (Q96SW2 whole entry) above
T1 sequence (Q16531 whole entry partner): as the sequence (Q16531 whole entry partner) above
T3 sequence (Q9UKS7 whole entry): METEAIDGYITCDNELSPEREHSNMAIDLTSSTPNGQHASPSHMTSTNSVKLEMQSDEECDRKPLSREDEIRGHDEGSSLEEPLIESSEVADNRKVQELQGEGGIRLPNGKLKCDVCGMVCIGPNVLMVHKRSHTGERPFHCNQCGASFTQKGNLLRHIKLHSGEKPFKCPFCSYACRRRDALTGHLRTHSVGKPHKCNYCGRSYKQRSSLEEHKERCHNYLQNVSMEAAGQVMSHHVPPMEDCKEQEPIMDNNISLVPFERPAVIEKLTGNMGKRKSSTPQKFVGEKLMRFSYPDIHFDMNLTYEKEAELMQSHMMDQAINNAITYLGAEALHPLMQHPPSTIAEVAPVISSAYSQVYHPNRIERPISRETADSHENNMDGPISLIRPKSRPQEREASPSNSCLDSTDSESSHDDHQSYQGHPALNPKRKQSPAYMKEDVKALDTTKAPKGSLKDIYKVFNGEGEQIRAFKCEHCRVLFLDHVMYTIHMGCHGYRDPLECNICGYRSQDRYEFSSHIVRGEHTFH
T3 sequence (Q96SW2 whole entry): as the sequence (Q96SW2 whole entry) above
T3 sequence (Q16531 whole entry partner): as the sequence (Q16531 whole entry partner) above
T4 sequence (Q9UKT9 whole entry): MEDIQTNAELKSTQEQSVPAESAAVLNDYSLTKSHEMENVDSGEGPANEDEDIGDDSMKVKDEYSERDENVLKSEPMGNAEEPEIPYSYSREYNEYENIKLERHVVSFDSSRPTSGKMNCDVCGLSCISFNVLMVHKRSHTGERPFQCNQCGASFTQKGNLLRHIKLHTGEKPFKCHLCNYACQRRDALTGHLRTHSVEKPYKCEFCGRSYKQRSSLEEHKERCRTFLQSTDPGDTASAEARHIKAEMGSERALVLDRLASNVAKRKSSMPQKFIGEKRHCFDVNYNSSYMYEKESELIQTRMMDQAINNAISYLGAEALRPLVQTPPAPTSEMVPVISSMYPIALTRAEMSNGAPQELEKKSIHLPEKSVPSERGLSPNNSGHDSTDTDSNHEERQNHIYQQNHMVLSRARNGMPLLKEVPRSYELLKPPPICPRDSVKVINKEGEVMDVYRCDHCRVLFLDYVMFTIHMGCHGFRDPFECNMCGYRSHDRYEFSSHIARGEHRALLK
T4 sequence (Q96SW2 whole entry): as the sequence (Q96SW2 whole entry) above
T4 sequence (Q16531 whole entry partner): as the sequence (Q16531 whole entry partner) above
T6 sequence (Q96SW2 whole entry): as the sequence (Q96SW2 whole entry) above
T2 sequence (Q13422 whole entry): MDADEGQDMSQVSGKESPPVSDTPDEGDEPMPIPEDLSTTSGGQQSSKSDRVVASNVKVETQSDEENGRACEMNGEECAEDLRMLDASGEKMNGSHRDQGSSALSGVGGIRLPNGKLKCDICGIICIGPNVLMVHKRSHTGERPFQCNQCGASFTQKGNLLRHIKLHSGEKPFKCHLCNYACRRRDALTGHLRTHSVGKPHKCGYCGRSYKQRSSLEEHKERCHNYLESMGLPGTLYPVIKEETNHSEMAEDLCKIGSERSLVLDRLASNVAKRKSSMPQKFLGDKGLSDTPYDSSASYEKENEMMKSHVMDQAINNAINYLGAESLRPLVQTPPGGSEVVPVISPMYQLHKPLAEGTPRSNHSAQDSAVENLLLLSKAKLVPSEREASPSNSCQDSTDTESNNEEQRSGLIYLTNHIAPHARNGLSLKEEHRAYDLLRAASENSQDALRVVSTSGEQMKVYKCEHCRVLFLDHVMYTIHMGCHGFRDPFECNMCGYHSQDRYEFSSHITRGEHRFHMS
T2 sequence (Q96SW2 whole entry): as the sequence (Q96SW2 whole entry) above
T2 sequence (Q16531 whole entry partner): as the sequence (Q16531 whole entry partner) above

| inhibition at 0.5 µM [1] | inhibition at 2 µM [1] | SMILES | CK1α substrate protein remaining % (CK1α; [2]) | IKZF 1 substrate protein remaining % (IKZF1; [2]) | IKZF2 substrate protein remaining % (IKZF2; [2]) | IKZF3 substrate protein remaining % (IKZF3; [2]) | Wee1 substrate protein remaining % (WEE1; [2]) | GSPT1 substrate protein remaining % (GSPT1; [2]) | CK1α substrate protein remaining % (CK1α; [3]) | IKZF 1 substrate protein remaining % (IKZF1; [3]) | IKZF2 substrate protein remaining % (IKZF2; [3]) | IKZF3 substrate protein remaining % (IKZF3; [3]) | Wee1 substrate protein remaining % (WEE1; [3]) | GSPT1 substrate protein remaining % (GSPT1; [3]) |
| --- | --- | --- | --- | --- | --- | --- | --- | --- | --- | --- | --- | --- | --- | --- |
| 60 to 80% | 80 to 100% | O=C1CCC(N2Cc3cc(CN4CCN(c5c(F)cccc5F)CC4)ccc3C2=S)C(=O)N1 (stereo not drawn) [GT-08626, 3-(5-((4-(2,6-difluorophenyl)piperazin-1-yl)methyl)-1-thioxoisoindolin-2-yl)piperidine-2,6-dione] | B (80%< substrate protein remaining %≤ 100%) | B (80%< substrate protein remaining %≤ 100%) | B (80%< substrate protein remaining %≤ 100%) | B (80%< substrate protein remaining %≤ 100%) | B (80%< substrate protein remaining %≤ 100%) | A (0% ≤ substrate protein remaining % ≤ 80%) | – | – | – | – | – | – |
| 60 to 80% | 80 to 100% | O=C1CCC(N2Cc3c(CN4CCN(c5ncnc6sccc56)CC4)cccc3C2=S)C(=O)N1 (stereo not drawn) [GT-08912, 3-(4-((4-(thieno[2,3-d]pyrimidin-4-yl)piperazin-1-yl)methyl)-1-thioxoisoindolin-2-yl)piperidine-2,6-dione] | – | – | – | – | – | – | B (80%< substrate protein remaining %≤ 100%) | B (80%< substrate protein remaining %≤ 100%) | B (80%< substrate protein remaining %≤ 100%) | B (80%< substrate protein remaining %≤ 100%) | A (0% ≤ substrate protein remaining % ≤ 80%) | B (80%< substrate protein remaining %≤ 100%) |
| 60 to 80% | 80 to 100% | O=C1CCC(N2Cc3c(CN4CCN(c5ncnc6sc(Br)cc56)CC4)cccc3C2=S)C(=O)N1 (stereo not drawn) [GT-08918, 3-(4-((4-(6-bromothieno[2,3-d]pyrimidin-4-yl)piperazin-1-yl)methyl)-1-thioxoisoindolin-2-yl)piperidine-2,6-dione] | – | – | – | – | – | – | B (80%< substrate protein remaining %≤ 100%) | B (80%< substrate protein remaining %≤ 100%) | B (80%< substrate protein remaining %≤ 100%) | B (80%< substrate protein remaining %≤ 100%) | A (0% ≤ substrate protein remaining % ≤ 80%) | B (80%< substrate protein remaining %≤ 100%) |
| 60 to 80% | 80 to 100% | O=C1CCC(N2Cc3c(CN4CCN(c5ncnc(Cl)c5Cl)CC4)cccc3C2=S)C(=O)N1 (stereo not drawn) [GT-08814, 3-(4-((4-(5,6-dichloropyrimidin-4-yl)piperazin-1-yl)methyl)-1-thioxoisoindolin-2-yl)piperidine-2,6-dione] | B (80%< substrate protein remaining %≤ 100%) | B (80%< substrate protein remaining %≤ 100%) | A (0% ≤ substrate protein remaining % ≤ 80%) | B (80%< substrate protein remaining %≤ 100%) | B (80%< substrate protein remaining %≤ 100%) | B (80%< substrate protein remaining %≤ 100%) | – | – | – | – | – | – |
| 60 to 80% | 80 to 100% | O=C1CCC(N2Cc3c(CN4CCN(c5ncccn5)CC4)cccc3C2=S)C(=O)N1 (stereo not drawn) [GT-08812, 3-(4-((4-(pyrimidin-2-yl)piperazin-1-yl)methyl)-1-thioxoisoindolin-2-yl)piperidine-2,6-dione] | B (80%< substrate protein remaining %≤ 100%) | B (80%< substrate protein remaining %≤ 100%) | B (80%< substrate protein remaining %≤ 100%) | B (80%< substrate protein remaining %≤ 100%) | A (0% ≤ substrate protein remaining % ≤ 80%) | B (80%< substrate protein remaining %≤ 100%) | – | – | – | – | – | – |
| 60 to 80% | 80 to 100% | O=C1CCC(N2Cc3cc(CN4CCN(c5ccncc5)CC4)ccc3C2=S)C(=O)N1 (stereo not drawn) [GT-09233, 3-(5-((4-(pyridin-4-yl)piperazin-1-yl)methyl)-1-thioxoisoindolin-2-yl)piperidine-2,6-dione] | A (0% ≤ substrate protein remaining % ≤ 80%) | A (0% ≤ substrate protein remaining % ≤ 80%) | A (0% ≤ substrate protein remaining % ≤ 80%) | A (0% ≤ substrate protein remaining % ≤ 80%) | A (0% ≤ substrate protein remaining % ≤ 80%) | A (0% ≤ substrate protein remaining % ≤ 80%) | – | – | – | – | – | – |
| 60 to 80% | 60 to 80% | COc1cccc(N2CCN(Cc3cccc4c3CN(C3CCC(=O)NC3=O)C4=S)CC2)c1 (stereo not drawn) [GT-08304, 3-(4-((4-(3-methoxyphenyl)piperazin-1-yl)methyl)-1-thioxoisoindolin-2-yl)piperidine-2,6-dione] | B (80%< substrate protein remaining %≤ 100%) | A (0% ≤ substrate protein remaining % ≤ 80%) | B (80%< substrate protein remaining %≤ 100%) | B (80%< substrate protein remaining %≤ 100%) | A (0% ≤ substrate protein remaining % ≤ 80%) | B (80%< substrate protein remaining %≤ 100%) | – | – | – | – | – | – |
| 40 to 53% | 60 to 80% | CC1(C)CN(Cc2ccc3c(c2)CN(C2CCC(=O)NC2=O)C3=S)CCN1C(c1ccccc1)c1ccccc1 (stereo not drawn) [GT-07845, 3-(5-((4-benzhydryl-3,3-dimethylpiperazin-1-yl)methyl)-1-thioxoisoindolin-2-yl)piperidine-2,6-dione] | B (80%< substrate protein remaining %≤ 100%) | A (0% ≤ substrate protein remaining % ≤ 80%) | A (0% ≤ substrate protein remaining % ≤ 80%) | B (80%< substrate protein remaining %≤ 100%) | A (0% ≤ substrate protein remaining % ≤ 80%) | B (80%< substrate protein remaining %≤ 100%) | – | – | – | – | – | – |
| 53 to 60% | 80 to 100% | O=C1CCC(N2Cc3c(CN4CCN(c5noc6ccncc56)CC4)cccc3C2=S)C(=O)N1 (stereo not drawn) [GT-08838, 3-(4-((4-(isoxazolo[4,5-c]pyridin-3-yl)piperazin-1-yl)methyl)-1-thioxoisoindolin-2-yl)piperidine-2,6-dione] | B (80%< substrate protein remaining %≤ 100%) | B (80%< substrate protein remaining %≤ 100%) | B (80%< substrate protein remaining %≤ 100%) | B (80%< substrate protein remaining %≤ 100%) | A (0% ≤ substrate protein remaining % ≤ 80%) | A (0% ≤ substrate protein remaining % ≤ 80%) | – | – | – | – | – | – |

| SMILES | inhibition at 0.5 µM [1] | inhibition at 2 µM [1] | CK1α substrate protein remaining % (CK1α; [2]) | IKZF 1 substrate protein remaining % (IKZF1; [2]) | IKZF2 substrate protein remaining % (IKZF2; [2]) | IKZF3 substrate protein remaining % (IKZF3; [2]) | Wee1 substrate protein remaining % (WEE1; [2]) | GSPT1 substrate protein remaining % (GSPT1; [2]) | CK1α substrate protein remaining % (CK1α; [3]) | IKZF 1 substrate protein remaining % (IKZF1; [3]) | IKZF2 substrate protein remaining % (IKZF2; [3]) | IKZF3 substrate protein remaining % (IKZF3; [3]) | Wee1 substrate protein remaining % (WEE1; [3]) | GSPT1 substrate protein remaining % (GSPT1; [3]) |
| --- | --- | --- | --- | --- | --- | --- | --- | --- | --- | --- | --- | --- | --- | --- |
| O=C1CCC(N2Cc3c(CN4CC=C(c5ccco5)CC4)cccc3C2=S)C(=O)N1 (stereo not drawn) [GT-08311, 3-(4-((4-(furan-2-yl)-3,6-dihydropyridin-1 (2H)-yl)methyl)-1-thioxoisoindolin-2-yl)piperidine-2,6-dione] | 60 to 80% | 80 to 100% | – | – | – | – | – | – | B (80%< substrate protein remaining %≤ 100%) | B (80%< substrate protein remaining %≤ 100%) | B (80%< substrate protein remaining %≤ 100%) | B (80%< substrate protein remaining %≤ 100%) | A (0% ≤ substrate protein remaining % ≤ 80%) | B (80%< substrate protein remaining %≤ 100%) |
| O=C1CCC(N2Cc3c(CN4C5CCC4CN(C(c4ccccc4)c4ccccc4)C5)cccc3C2=S)C(=O)N1 (stereo not drawn) [GT-08235, 3-(4-((3-benzhydryl-3,8-diazabicyclo[3.2.1]octan-8-yl)methyl)-1-thioxoisoindolin-2-yl)piperidine-2,6-dione] | 40 to 53% | 80 to 100% | B (80%< substrate protein remaining %≤ 100%) | B (80%< substrate protein remaining %≤ 100%) | B (80%< substrate protein remaining %≤ 100%) | B (80%< substrate protein remaining %≤ 100%) | B (80%< substrate protein remaining %≤ 100%) | A (0% ≤ substrate protein remaining % ≤ 80%) | – | – | – | – | – | – |
| O=C1CCC(N2Cc3c(CN4CC5CCC(C4)N5c4cccc(Cl)c4Cl)cccc3C2=S)C(=O)N1 (stereo not drawn) [GT-08470, 3-(4-((8-(2,3-dichlorophenyl)-3,8-diazabicyclo[3.2.1]octan-3-yl)methyl)-1-thioxoisoindolin-2-yl)piperidine-2,6-dione] | 20 to 30% | 53 to 60% | B (80%< substrate protein remaining %≤ 100%) | B (80%< substrate protein remaining %≤ 100%) | B (80%< substrate protein remaining %≤ 100%) | B (80%< substrate protein remaining %≤ 100%) | B (80%< substrate protein remaining %≤ 100%) | A (0% ≤ substrate protein remaining % ≤ 80%) | – | – | – | – | – | – |
